How the values were obtained:
Format in all cases: in vivo
Monochoria vaginalis [1] = assay: Test Example 11: herbicidal effect test by soil treatment in paddy field; settings: 120 g/10a active ingredient, 14 days after treatment
Text: (§1) A Wagner pot having an area of 1/10000 are was filled with paddy field soil and after adding water, a chemical fertilizer (N:P:K=17:17:17) was mixed, followed by puddling. Thereafter, 30 grains of each of Echinochloa crus-galli, broad-leaved weed (Lindernia pyxidaria, Monochoria vaginalis) and Scirpus juncoides seeds were sown to a depth of 0 to 1 cm. Immediately after the sowing, the pot was flooded, and the depth of water was kept at about 3 cm. The pot was subsequently managed in a glass greenhouse. Just after that, an emulsifiable concentrate prepared according to Formulation Example 15 by using the compound shown in Table 9 below was diluted with water, and a predetermined amount of the water-diluted formulation was added dropwise. The application rate of the active ingredient, by conversion, corresponded to 120 g per 10 are.
(§2) This test was performed with two replications per one formulation concentration plot, and 14 days after the formulation treatments, the weed suppression rate (%) was determined according to the following equation (Math. 2). Weed suppression rate (%)=(1−average dry weight (g) of plants in treated plots/average dry weight (g) of plants in untreated plots)×100 [Math. 2]

Scirpus juncoides [2] = assay: as above; settings: 120 g/10a active ingredient, 14 days after treatment
Text: as §1, §2

Lindernia pyxidaria [3] = assay: as above; settings: 120 g/10a active ingredient, 14 days after treatment
Text: as §1, §2

Echinochloa crus-galli [4] = assay: as above; settings: 120 g/10a active ingredient, 14 days after treatment
Text: as §1, §2

Monochoria vaginalis [5] = assay: Test Example 12: herbicidal effect test by treatment during growing period in paddy field; settings: 120 g/10a; treatment seven days after sowing in flooded paddy pot; assessed 14 days after treatment
Method: as §2
as §1, with “Seven Days” for “Just”, “sowing,” for “that,”, “10” for “9”, “are. The test was performed with two replications per one formulation concentration plot, and 14 days after the formulation treatments, the weed suppression rate (%) was determined according to the equation (Math. 2).” for “are.”

Scirpus juncoides [6] = assay: as above; settings: 120 g/10a; treatment seven days after sowing in flooded paddy pot; assessed 14 days after treatment
Method: as §2
as §1, with “Seven Days” for “Just”, “sowing,” for “that,”, “10” for “9”, “are. The test was performed with two replications per one formulation concentration plot, and 14 days after the formulation treatments, the weed suppression rate (%) was determined according to the equation (Math. 2).” for “are.”

Lindernia pyxidaria [7] = assay: as above; settings: 120 g/10a; treatment seven days after sowing in flooded paddy pot; assessed 14 days after treatment
Method: as §2
as §1, with “Seven Days” for “Just”, “sowing,” for “that,”, “10” for “9”, “are. The test was performed with two replications per one formulation concentration plot, and 14 days after the formulation treatments, the weed suppression rate (%) was determined according to the equation (Math. 2).” for “are.”

Echinochloa crus-galli [8] = assay: as above; settings: 120 g/10a; treatment seven days after sowing in flooded paddy pot; assessed 14 days after treatment
Method: as §2
as §1, with “Seven Days” for “Just”, “sowing,” for “that,”, “10” for “9”, “are. The test was performed with two replications per one formulation concentration plot, and 14 days after the formulation treatments, the weed suppression rate (%) was determined according to the equation (Math. 2).” for “are.”

| Compound | Weed suppression rate (%) Monochoria vaginalis (Monochoria vaginalis [1]) | Weed suppression rate (%) Scirpus juncoides (Scirpus juncoides [2]) | Weed suppression rate (%) Lindemia pyxidaria (Lindernia pyxidaria [3]) | Weed suppression rate (%) Echinochloa crus-galli (Echinochloa crus-galli [4]) | Weed suppression rate (%) Monochoria vaginalis (Monochoria vaginalis [5]) | Weed suppression rate (%) Scirpus juncoides (Scirpus juncoides [6]) | Weed suppression rate (%) Lindemia pyxidaria (Lindernia pyxidaria [7]) | Weed suppression rate (%) Echinochloa crus-galli (Echinochloa crus-galli [8]) |
| --- | --- | --- | --- | --- | --- | --- | --- | --- |
| CC(C)N(C(=O)n1cnn(S(=O)(=O)C2CCCCC2)c1=O)c1ccc(Br)cc1Cl [Compound 11-305] | 100% | 90% | 100% | 100% | 100% | 100% | 90% | 100% |
| Cc1cc(F)ccc1N(C(=O)n1cnn(S(=O)(=O)C2CCCCC2)c1=O)C(C)C [Compound 11-307] | 70% | 80% | 70% | 80% | 60% | 60% | 70% | 90% |
| CC(C)N(C(=O)n1cnn(S(=O)(=O)C2CCCCC2)c1=O)c1ccc(C(F)(F)F)cc1Cl [Compound 11-314] | 80% | 90% | 80% | 90% | 80% | 90% | 80% | 90% |
| CC(C)N(C(=O)n1cnn(S(=O)(=O)C2CCCCC2)c1=O)c1ccc(C#N)cc1Cl [Compound 11-316] | 80% | 90% | 80% | 90% | 80% | 90% | 80% | 90% |
| CCN(C(=O)n1cnn(S(=O)(=O)c2ccccc2)c1=O)C1CCCCC1 [Compound 11-353] | 80% | 90% | 80% | 90% | 80% | 90% | 80% | 90% |
| CC(C)N(C(=O)n1cnn(S(=O)(=O)c2ccccc2)c1=O)c1ccc(Cl)cc1 [Compound 11-361] | 80% | 90% | 80% | 90% | 80% | 90% | 80% | 90% |
| CC(C)N(C(=O)n1cnn(S(=O)(=O)c2ccccc2F)c1=O)c1ccccc1F [Compound 11-392] | 80% | 90% | 80% | 90% | 80% | 90% | 80% | 90% |
| CC(C)N(C(=O)n1cnn(S(=O)(=O)c2ccccc2F)c1=O)c1cccc(F)c1F [Compound 11-401] | 100% | 90% | 100% | 100% | 100% | 100% | 80% | 100% |
| CC(C)N(C(=O)n1cnn(S(=O)(=O)c2ccccc2F)c1=O)c1c(F)cccc1F [Compound 11-404] | 60% | 30% | 30% | 100% | 70% | 70% | 70% | 100% |
| CC(C)N(C(=O)n1cnn(S(=O)(=O)c2ccccc2F)c1=O)c1ccc(Br)cc1Cl [Compound 11-413] | 80% | 80% | 90% | 80% | 70% | 70% | 70% | 60% |
| Cc1ccc(N(C(=O)n2cnn(S(=O)(=O)c3ccccc3F)c2=O)C(C)C)c(F)c1 [Compound 11-416] | 80% | 90% | 80% | 90% | 80% | 90% | 80% | 90% |
| CC(C)N(C(=O)n1cnn(S(=O)(=O)c2ccccc2F)c1=O)c1ccc(C(F)(F)F)cc1F [Compound 11-419] | 60% | 70% | 100% | 100% | 80% | 60% | 60% | 90% |
| CC(C)N(C(=O)n1cnn(S(=O)(=O)c2cccc(F)c2)c1=O)c1ccccc1F [Compound 11-428] | 90% | 90% | 90% | 90% | 90% | 90% | 90% | 90% |
| CC(C)N(C(=O)n1cnn(S(=O)(=O)c2cccc(F)c2)c1=O)c1cccc(F)c1F [Compound 11-437] | 80% | 80% | 80% | 100% | 100% | 100% | 100% | 100% |
| CC(C)N(C(=O)n1cnn(S(=O)(=O)c2cccc(F)c2)c1=O)c1ccc(F)c(F)c1F [Compound 11-441] | 60% | 100% | 90% | 100% | 80% | 100% | 60% | 100% |

— patent US11076595B2, “1-(n,n-disubstituted carbamoyl) 4-(substituted sulfonyl)triazolin-5-one derivative, 4-(n,n-disubstituted carbamoyl) 1-(substituted sulfonyl)triazolin-5-one derivative, and herbicide containing said derivative as active ingredient” (HOKKO CHEMICAL INDUSTRY CO., LTD., priority 2017, dated 2021)
